Results taken from patent publication US20120295907A1, “INSECTICIDAL COMPOUNDS” (SYNGENTA CROP PROTECTION, LLC, priority 2009, published 2012).

Assays:
Assay type in all cases: in vivo
[1] = tested on: Plutella xylostella; assay: Plutella xylostella (Diamond Back Moth) artificial diet MTP test; conditions: 144 h, 200 ppm (concentration in well 18 ppm), L2 larvae, 6 days, larval mortality, growth regulation
[2] = tested on: Myzus persicae; assay: Myzus persicae (Green Peach Aphid) sunflower leaf disc spray test; conditions: foliar, 144 h, 200 ppm spray on sunflower leaf discs, aphid population of mixed ages, 6 DAT, mortality
[3] = tested on: Diabrotica balteata; assay: Diabrotica balteata (Corn Root Worm) artificial diet MTP test; conditions: 120 h, 200 ppm (concentration in well 18 ppm), L2 larvae, 5 days, larval mortality, growth regulation
[4] = tested on: Tetranychus urticae; assay: Tetranychus urticae (Two-Spotted Spider Mite) bean leaf disc spray test; conditions: foliar, 192 h, 200 ppm spray on bean leaf discs, mite populations of mixed ages, 8 days, egg, larval and adult mortality, read-out: control of Tetranychus urticae
[5] = tested on: Spodoptera littoralis; assay: Spodoptera littoralis (Egyptian Cotton Leafworm) cotton leaf disc spray test; conditions: foliar, 72 h, 200 ppm spray on cotton leaf discs, L1 larvae, mortality, feeding behavior, growth regulation 3 DAT
[6] = tested on: Heliothis virescens; assay: Heliothis virescens (Tobacco Budworm) egg test on artificial diet; conditions: 96 h, 200 ppm (concentration in well 18 ppm), eggs 0-24 h old on artificial diet, 4 days, egg mortality, larval mortality, growth regulation
[7] = tested on: Thrips tabaci; assay: Thrips tabaci (Onion Thrips) sunflower leaf disc spray test; conditions: foliar, 168 h, 200 ppm spray on sunflower leaf discs, population of mixed ages, 7 days, mortality

Measured: pest or weed control at 200 ppm

COc1c(NC(=O)c2c(F)cc(C#N)cc2F)cccc1C(=O)Nc1c(Cl)cc(C(F)(C(F)(F)F)C(F)(F)F)cc1Br [G4]
not listed: [7]
≥ 80%: all other assays above

COc1c(NC(=O)c2cccc(F)c2F)cccc1C(=O)Nc1c(Cl)cc(C(F)(C(F)(F)F)C(F)(F)F)cc1Cl [E21]
not listed: [4]
≥ 80%: all other assays above

COc1c(NC(=O)c2ccc(C(F)(F)F)cc2)cccc1C(=O)Nc1c(Cl)cc(C(F)(C(F)(F)F)C(F)(F)C(F)(F)F)cc1Br (stereo not shown) [B15]
not listed: [3] | [7]
≥ 80%: all other assays above

CCc1cc(C(F)(C(F)(F)F)C(F)(F)F)cc(C)c1NC(=O)c1cccc(NC(=O)c2ccc(F)cc2Cl)c1OC [J27]
not listed: [5]
≥ 80%: all other assays above

COc1c(NC(=O)c2csnc2C)cccc1C(=O)Nc1c(Cl)cc(C(F)(C(F)(F)F)C(F)(F)C(F)(F)F)cc1Br (stereo not shown) [B98]
not listed: [7]
≥ 80%: all other assays above

COc1cc(C(=O)Nc2cccc(C(=O)Nc3c(Cl)cc(C(F)(C(F)(F)F)C(F)(F)C(F)(F)F)cc3Br)c2OC)on1 (stereo not shown) [B89]
not listed: [4]
≥ 80%: all other assays above

COc1c(NC(=O)c2ccc([N+](=O)[O-])cc2)cccc1C(=O)Nc1c(Cl)cc(C(F)(C(F)(F)F)C(F)(F)C(F)(F)F)cc1Br (stereo not shown) [B7]
not listed: [3] | [7]
≥ 80%: all other assays above

COc1ccc(C(=O)Nc2cccc(C(=O)Nc3c(Cl)cc(C(F)(C(F)(F)F)C(F)(F)C(F)(F)F)cc3Br)c2OC)cc1 (stereo not shown) [B28]
not listed: [6]
≥ 80%: all other assays above

COc1c(NC(=O)c2cccs2)cccc1C(=O)Nc1c(Cl)cc(C(F)(C(F)(F)F)C(F)(F)C(F)(F)F)cc1Br (stereo not shown) [B44]
not listed: [4]
≥ 80%: all other assays above

COc1c(NC(=O)c2ccc(C#N)cc2)cccc1C(=O)Nc1c(Cl)cc(C(F)(C(F)(F)F)C(F)(F)C(F)(F)F)cc1Br (stereo not shown) [B6]
not listed: [3] | [7]
≥ 80%: all other assays above

COc1c(NC(=O)c2ccc(F)cc2Cl)cccc1C(=O)Nc1c(Cl)cc(C(F)(C(F)(F)F)C(F)(F)C(F)(F)F)cc1Cl (stereo not shown) [C1, N-[2,6-dichloro-4-(1,2,2,3,3,3-hexafluoro-1-trifluoromethylpropyl)phenyl]-3-(4-fluoro-2-chlorobenzoylamino)-2-methoxybenzamide]
not listed: [4]
≥ 80%: all other assays above

COc1c(NC(=O)c2ccc(C)s2)cccc1C(=O)Nc1c(Cl)cc(C(F)(C(F)(F)F)C(F)(F)C(F)(F)F)cc1Br (stereo not shown) [B137]
not listed: [4]
≥ 80%: all other assays above

COc1c(NC(=O)c2ccc(C)cc2)cccc1C(=O)Nc1c(Cl)cc(C(F)(C(F)(F)F)C(F)(F)C(F)(F)F)cc1Br (stereo not shown) [B8]
not listed: [3] | [7]
≥ 80%: all other assays above

COc1c(NC(=O)c2ccc(F)cc2Cl)cccc1C(=O)Nc1c(Cl)cc(C(F)(C(F)(F)F)C(F)(F)F)cc1Br [G5]
not listed: [7]
≥ 80%: all other assays above

COc1c(NC(=O)c2ccncc2)cccc1C(=O)Nc1c(Cl)cc(C(F)(C(F)(F)F)C(F)(F)C(F)(F)F)cc1Br (stereo not shown) [B54]
not listed: [6]
≥ 80%: all other assays above

COc1c(NC(=O)c2c(F)cc(F)cc2F)cccc1C(=O)Nc1c(Cl)cc(C(F)(C(F)(F)F)C(F)(F)C(F)(F)F)cc1Br (stereo not shown) [B189, N-{3-[2-Bromo-6-chloro-4-(1,2,2,3,3,3-hexafluoro-1-trifluoromethylpropyl)-phenylcarbamoyl]-2-methoxyphenyl}-2,4,6-trifluorobenzamide]
not listed: [3] | [7]
≥ 80%: all other assays above

COc1c(NC(=O)c2ccc(C)cc2)cccc1C(=O)Nc1c(Cl)cc(C(F)(C(F)(F)F)C(F)(F)F)cc1Cl [E6]
not listed: [4]
≥ 80%: all other assays above

COc1c(NC(=O)c2ccccc2)cccc1C(=O)Nc1c(Cl)cc(C(F)(C(F)(F)F)C(F)(F)F)cc1Cl [E16]
not listed: [4]
≥ 80%: all other assays above

COc1c(NC(=O)c2cccnc2SC)cccc1C(=O)Nc1c(Cl)cc(C(F)(C(F)(F)F)C(F)(F)C(F)(F)F)cc1Br (stereo not shown) [B45]
not listed: [4]
≥ 80%: all other assays above

COc1c(NC(=O)c2c(F)cc(F)cc2F)cccc1C(=O)Nc1c(Cl)cc(C(F)(C(F)(F)F)C(F)(F)F)cc1Br [G3]
not listed: [7]
≥ 80%: all other assays above

COc1c(NC(=O)c2ccc(F)cc2)cccc1C(=O)Nc1c(Cl)cc(C(F)(C(F)(F)F)C(F)(F)C(F)(F)F)cc1Br (stereo not shown) [B19]
not listed: [3] | [7]
≥ 80%: all other assays above

CCc1cc(C(F)(C(F)(F)F)C(F)(F)C(F)(F)F)cc(C)c1NC(=O)c1cccc(NC(=O)c2ccc(F)cc2Cl)c1OC (stereo not shown) [A3, N-[2-ethyl-4-(1,2,2,3,3,3-hexafluoro-1-trifluoromethylpropyl)-6-methylphenyl]-3-(4-fluoro-2-chlorobenzoylamino)-2-methoxybenzamide]
not listed: [1] | [6]
≥ 80%: all other assays above

COc1c(NC(=O)c2ccccc2Cl)cccc1C(=O)Nc1c(Cl)cc(C(F)(C(F)(F)F)C(F)(F)C(F)(F)F)cc1Br (stereo not shown) [B5]
not listed: [7]
≥ 80%: all other assays above

CCc1cc(C(F)(C(F)(F)F)C(F)(F)C(F)(F)F)cc(C)c1NC(=O)c1cccc(NC(=O)c2ccc([N+](=O)[O-])cc2C)c1OC (stereo not shown) [A22]
not listed: [6]
≥ 80%: all other assays above

COc1c(NC(=O)c2ccc(F)cc2Cl)cccc1C(=O)Nc1c(Cl)cc(C(F)(C(F)(F)F)C(F)(F)C(F)(F)F)cc1Br (stereo not shown) [B2, N-[2-bromo-6-chloro-4-(1,2,2,3,3,3-hexafluoro-1-trifluoromethylpropyl)phenyl]-3-(4-fluoro-2-chlorobenzoylamino)-2-methoxybenzamide]
not listed: [3] | [7]
≥ 80%: all other assays above
